Values of other authors as cited in patent US20070178049A1, “Systems and methods for the delivery of corticosteroids having an enhanced pharmacokinetic profile” (Verus Pharmaceuticals, Inc., priority 2005, published 2007).

solubility in alcohols (alcohols): readily soluble
solubility in water (water): virtually insoluble
Compound: CCCC1O[C@@H]2C[C@H]3[C@@H]4CCC5=CC(=O)C=C[C@]5(C)[C@H]4[C@@H](O)C[C@]3(C)[C@]2(C(=O)CO)O1 (stereo partly drawn) [budesonide, (R, S)-11β,16α,17,21-tetrahydroxypregna-1,4-diene-3,20-dione cyclic 16,17-acetal with butyraldehyde]
